ChEMBL document CHEMBL2401728, “An unexpected Dimroth rearrangement leading to annelated thieno[3,2-d][1,2,3]triazolo[1,5-a]pyrimidines with potent antitumor activity” (Eur J Med Chem, 2013)

Legend:
Assay type in all cases: functional
SF-295 [1] = experiment: Cytotoxicity against human SF295 cells assessed as cellular growth at 0.01 uM after 48 hrs by SRB assay relative to control
RXF 393 = experiment: Cytotoxicity against human RXF393 cells after 48 hrs by SRB assay; settings: RXF 393, 48 h
Hs-578T = experiment: Cytotoxicity against human Hs578T cells assessed as cellular growth at 10 uM after 48 hrs by SRB assay relative to control
BT-549 = experiment: Cytotoxicity against human BT549 cells after 48 hrs by SRB assay; settings: BT-549, 48 h
OVCAR-3 = experiment: Cytotoxicity against human OVCAR3 cells assessed as cellular growth at 1 uM after 48 hrs by SRB assay relative to control
[2] = Cytotoxicity against human EKVX cells assessed as cellular growth at 1 uM after 48 hrs by SRB assay relative to control
HOP-92 [3] = experiment: Cytotoxicity against human HOP92 cells assessed as cellular growth at 0.01 uM after 48 hrs by SRB assay relative to control
SNB-19 = experiment: Cytotoxicity against human SNB19 cells assessed as cellular growth at 0.1 uM after 48 hrs by SRB assay relative to control
NCI-H23 = experiment: Cytotoxicity against human NCI-H23 cells assessed as cellular growth at 0.1 uM after 48 hrs by SRB assay relative to control
MDA-MB-435 = experiment: Cytotoxicity against human MDA-MB-435 cells assessed as cellular growth at 0.1 uM after 48 hrs by SRB assay relative to control
COLO 205 = experiment: Cytotoxicity against human COLO205 cells assessed as cellular growth at 0.1 uM after 48 hrs by SRB assay relative to control
786-0 [4] = experiment: Cytotoxicity against human 786-0 cells assessed as cellular growth at 0.01 uM after 48 hrs by SRB assay relative to control
MCF7 = experiment: Cytotoxicity against human MCF7 cells assessed as cellular growth at 100 uM after 48 hrs by SRB assay relative to control
CCRF-CEM [5] = experiment: Cytotoxicity against human CCRF-CEM cells after 48 hrs by SRB assay
SF-539 [6] = experiment: Cytotoxicity against human SF539 cells assessed as cellular growth at 1 uM after 48 hrs by SRB assay relative to control
T47D = experiment: Cytotoxicity against human T47D cells assessed as cellular growth at 0.01 uM after 48 hrs by SRB assay relative to control
HOP-62 = experiment: Cytotoxicity against human HOP62 cells assessed as cellular growth at 100 uM after 48 hrs by SRB assay relative to control
M14 = experiment: Cytotoxicity against human M14 cells assessed as cellular growth at 0.1 uM after 48 hrs by SRB assay relative to control
SF-539 [7] = experiment: Cytotoxicity against human SF539 cells assessed as cellular growth at 0.01 uM after 48 hrs by SRB assay relative to control
K562 = experiment: Cytotoxicity against human K562 cells after 48 hrs by SRB assay; settings: K562, 48 h
KM12 = experiment: Cytotoxicity against human KM12 cells assessed as cellular growth at 0.1 uM after 48 hrs by SRB assay relative to control
786-0 [8] = experiment: Cytotoxicity against human 786-0 cells assessed as cellular growth at 0.1 uM after 48 hrs by SRB assay relative to control
SF-268 [9] = experiment: Cytotoxicity against human SF268 cells assessed as cellular growth at 0.1 uM after 48 hrs by SRB assay relative to control
SF-295 [10] = experiment: Cytotoxicity against human SF295 cells assessed as cellular growth at 100 uM after 48 hrs by SRB assay relative to control
MDA-MB-468 = experiment: Cytotoxicity against human MDA-MB-468 cells assessed as cellular growth at 100 uM after 48 hrs by SRB assay relative to control
DU-145 = experiment: Cytotoxicity against human DU145 cells assessed as cellular growth at 0.01 uM after 48 hrs by SRB assay relative to control
CCRF-CEM [11] = experiment: Cytotoxicity against human CCRF-CEM cells assessed as cellular growth at 1 uM after 48 hrs by SRB assay relative to control
SF-295 [12] = experiment: Cytotoxicity against human SF295 cells after 48 hrs by SRB assay; settings: SF-295, 48 h
SF-268 [13] = experiment: Cytotoxicity against human SF268 cells assessed as cellular growth at 100 uM after 48 hrs by SRB assay relative to control
SW-620 = experiment: Cytotoxicity against human SW620 cells after 48 hrs by SRB assay; settings: SW-620, 48 h
[14] = Cytotoxicity against human EKVX cells assessed as cellular growth at 0.01 uM after 48 hrs by SRB assay relative to control
NCI-H522 = experiment: Cytotoxicity against human NCI-H522 cells assessed as cellular growth at 1 uM after 48 hrs by SRB assay relative to control
HL-60(TB) = experiment: Cytotoxicity against human HL-60(TB) cells assessed as cellular growth at 1 uM after 48 hrs by SRB assay relative to control
HOP-92 [15] = experiment: Cytotoxicity against human HOP92 cells assessed as cellular growth at 0.1 uM after 48 hrs by SRB assay relative to control
LOX IMVI = experiment: Cytotoxicity against human LOXIMVI cells assessed as cellular growth at 1 uM after 48 hrs by SRB assay relative to control
UACC-62 = experiment: Cytotoxicity against human UACC62 cells assessed as cellular growth at 0.01 uM after 48 hrs by SRB assay relative to control
SF-295 [16] = experiment: Cytotoxicity against human SF295 cells assessed as cellular growth at 1 uM after 48 hrs by SRB assay relative to control
[17] = read-out: LC50 (the source's name)
[18] = read-out: pLC50 (the source's name) (converted)

O=C(CCCn1c2c(sc3ccccc32)c(=O)n2nnc(-c3ccccc3)c12)NCCc1c[nH]cn1
Activity (SF-295 [1]): 101% | GI50 (RXF 393; read-out: GI50): 2.2 µM | CC50 (RXF 393; [17]): 7.77 µM | TGI (RXF 393; read-out: TGI): 4.14 µM | GI50 (RXF 393; read-out: pGI50 (converted)): 2.19 µM | CC50 (RXF 393; [18]): 7.76 µM | TGI (RXF 393; read-out: pTGI (converted)): 4.17 µM | Activity (Hs-578T): -50% | GI50 (BT-549; read-out: GI50): 3.32 µM | LC50 (concentration killing 50% of cells) (BT-549; read-out: LC50): 51.5 µM | TGI (BT-549; read-out: TGI): 11.4 µM | GI50 (BT-549; read-out: pGI50 (converted)): 3.31 µM | LC50 (concentration killing 50% of cells) (BT-549; read-out: pLC50 (converted)): 51.3 µM | TGI (BT-549; read-out: pTGI (converted)): 11.5 µM | Activity (OVCAR-3): 92% | Activity [2]: 79% | Activity (HOP-92 [3]): 99% | Activity (SNB-19): 65% | Activity (NCI-H23): 75% | Activity (MDA-MB-435): 69% | Activity (COLO 205): 60% | Activity (786-0 [4]): 98% | Activity (MCF7): -73% | GI50 (CCRF-CEM [5]; read-out: GI50): 0.0156 µM | CC50 (CCRF-CEM [5]; [17]): 5.29 µM | TGI (CCRF-CEM [5]; read-out: TGI): 0.29 µM | GI50 (CCRF-CEM [5]; read-out: pGI50 (converted)): 0.0155 µM | CC50 (CCRF-CEM [5]; [18]): 5.25 µM | TGI (CCRF-CEM [5]; read-out: pTGI (converted)): 0.288 µM | Activity (SF-539 [6]): -6% | Activity (T47D): 85% | Activity (HOP-62): -66% | Activity (M14): 68% | Activity (SF-539 [7]): 73% | GI50 (K562; read-out: GI50): 0.0227 µM | CC50 (K562; [17]): 5.18 µM | TGI (K562; read-out: TGI): 1.02 µM | GI50 (K562; read-out: pGI50 (converted)): 0.0229 µM | CC50 (K562; [18]): 5.13 µM | TGI (K562; read-out: pTGI (converted)): 1.02 µM | Activity (KM12): 62% | Activity (786-0 [8]): 62% | Activity (SF-268 [9]): 93% | Activity (SF-295 [10]): -65% | Activity (MDA-MB-468): -100% | Activity (DU-145): 105% | Activity (CCRF-CEM [11]): -28% | GI50 (SF-295 [12]; read-out: GI50): 0.456 µM | CC50 (SF-295 [12]; [17]): 5.41 µM | TGI (SF-295 [12]; read-out: TGI): 2.11 µM | GI50 (SF-295 [12]; read-out: pGI50 (converted)): 0.457 µM | CC50 (SF-295 [12]; [18]): 5.37 µM | TGI (SF-295 [12]; read-out: pTGI (converted)): 2.09 µM | Activity (SF-268 [13]): -69% | GI50 (SW-620; read-out: GI50): 0.024 µM | CC50 (SW-620; [17]): 4.16 µM | TGI (SW-620; read-out: TGI): 1.01 µM | GI50 (SW-620; read-out: pGI50 (converted)): 0.024 µM | CC50 (SW-620; [18]): 4.17 µM | TGI (SW-620; read-out: pTGI (converted)): 1 µM | Activity [14]: 104% | Activity (NCI-H522): 42% | Activity (HL-60(TB)): 29% | Activity (HOP-92 [15]): 95% | Activity (LOX IMVI): 82% | Activity (UACC-62): 99% | Activity (SF-295 [16]): 39%

CN1CCN(CCCn2c3c(sc4ncccc43)c(=O)n3nnc(-c4ccccc4)c23)CC1
Activity (SF-295 [1]): 106% | GI50 (RXF 393; read-out: GI50): 1.7 µM | CC50 (RXF 393; [17]): 5.86 µM | TGI (RXF 393; read-out: TGI): 3.15 µM | GI50 (RXF 393; read-out: pGI50 (converted)): 1.7 µM | CC50 (RXF 393; [18]): 5.89 µM | TGI (RXF 393; read-out: pTGI (converted)): 3.16 µM | Activity (Hs-578T): 69% | GI50 (BT-549; read-out: GI50): 14.7 µM | LC50 (concentration killing 50% of cells) (BT-549; read-out: LC50): 63.9 µM | TGI (BT-549; read-out: TGI): 30.7 µM | GI50 (BT-549; read-out: pGI50 (converted)): 14.8 µM | LC50 (concentration killing 50% of cells) (BT-549; read-out: pLC50 (converted)): 64.6 µM | TGI (BT-549; read-out: pTGI (converted)): 30.9 µM | Activity (OVCAR-3): 96% | Activity [2]: 95% | Activity (HOP-92 [3]): 99% | Activity (SNB-19): 96% | Activity (NCI-H23): 93% | Activity (MDA-MB-435): 99% | Activity (COLO 205): 89% | Activity (786-0 [4]): 103% | Activity (MCF7): -79% | GI50 (CCRF-CEM [5]; read-out: GI50): 1.67 µM | CC50 (CCRF-CEM [5]; [17]): > 100 µM | TGI (CCRF-CEM [5]; read-out: TGI): 4.29 µM | GI50 (CCRF-CEM [5]; read-out: pGI50 (converted)): 1.66 µM | CC50 (CCRF-CEM [5]; [18]): > 100 µM | TGI (CCRF-CEM [5]; read-out: pTGI (converted)): 4.27 µM | Activity (SF-539 [6]): 90% | Activity (T47D): 89% | Activity (HOP-62): -81% | Activity (M14): 94% | Activity (SF-539 [7]): 99% | GI50 (K562; read-out: GI50): 1.91 µM | CC50 (K562; [17]): > 100 µM | TGI (K562; read-out: TGI): 4.74 µM | GI50 (K562; read-out: pGI50 (converted)): 1.91 µM | CC50 (K562; [18]): > 100 µM | TGI (K562; read-out: pTGI (converted)): 4.79 µM | Activity (KM12): 94% | Activity (786-0 [8]): 100% | Activity (SF-268 [9]): 89% | Activity (SF-295 [10]): -84% | Activity (MDA-MB-468): -91% | Activity (DU-145): 97% | Activity (CCRF-CEM [11]): 77% | GI50 (SF-295 [12]; read-out: GI50): 1.96 µM | CC50 (SF-295 [12]; [17]): 6.96 µM | TGI (SF-295 [12]; read-out: TGI): 3.7 µM | GI50 (SF-295 [12]; read-out: pGI50 (converted)): 1.95 µM | CC50 (SF-295 [12]; [18]): 6.92 µM | TGI (SF-295 [12]; read-out: pTGI (converted)): 3.72 µM | Activity (SF-268 [13]): -86% | GI50 (SW-620; read-out: GI50): 1.68 µM | CC50 (SW-620; [17]): 8.1 µM | TGI (SW-620; read-out: TGI): 3.69 µM | GI50 (SW-620; read-out: pGI50 (converted)): 1.7 µM | CC50 (SW-620; [18]): 8.13 µM | TGI (SW-620; read-out: pTGI (converted)): 3.72 µM | Activity [14]: 98% | Activity (NCI-H522): 99% | Activity (HL-60(TB)): 89% | Activity (HOP-92 [15]): 92% | Activity (LOX IMVI): 86% | Activity (UACC-62): 91% | Activity (SF-295 [16]): 103%
